For 75 compounds, TI rating results are on record in ChEMBL document CHEMBL1121594, “Adaptive least-squares method applied to structure--activity correlation of hypotensive N-alkyl-N''-cyano-N'-pyridylguanidines” (J Med Chem, 1980).

Common to all, as to type: organism-based
What all share (details): in vivo

For series [1], the system named is Rattus norvegicus. The experiment in a line: The hypotensive activity expressed as rating of therapeutic index (MED/LD50 <1/200).
The test system of series [2] is Rattus norvegicus. The experiment in a line: The hypotensive activity expressed as rating of therapeutic index (1/30> MED/LD50 >=1/200).
Series [3] concerns Rattus norvegicus. The experiment in a line: The hypotensive activity expressed as rating of therapeutic index (MED/LD50 >=1/30).

Compound `CCC(C)(C)NC(=NC#N)Nc1cccnc1` gave a TI rating in the series with Rattus norvegicus [1] of 3.

Consider `CC(C)CC(C)(C)/N=C(\NC#N)Nc1cccnc1`, for which the TI rating with Rattus norvegicus [1] stood at 3.

Regarding `CC(C)(C)C(C)(C)/N=C(\NC#N)Nc1ccncc1`, in the series with Rattus norvegicus [2], the TI rating is 2.

The compound `CCC(CC)/N=C(\NC#N)Nc1ccncc1` came in with a TI rating in the series on Rattus norvegicus [2] of 2.

`CC(C)C(/N=C(\NC#N)Nc1cccnc1)C(C)C` showed a TI rating with Rattus norvegicus [1] of 3.

In the case of `CC(C)(C)/N=C(\NC#N)Nc1ccc(Cl)nc1Cl`, the TI rating in the series on Rattus norvegicus [3] came to 1.

The compound `CC(C)CCC(C)/N=C(\NC#N)Nc1ccncc1` (stereo not given) showed a TI rating with Rattus norvegicus [3] of 1.

The compound `CCC(/N=C(\NC#N)Nc1ccncc1)C(C)C` (stereo not given) came in with a TI rating in the series with Rattus norvegicus [2] of 2.

`CC(C)CC(C)(C)/N=C(\NC#N)Nc1ccncc1`: the TI rating in the series on Rattus norvegicus [2] is reported as 2.

`CC1(/N=C(\NC#N)Nc2cccnc2)CCC1` displayed a TI rating in the series on Rattus norvegicus [3] of 1.

Consider `CC(/N=C(\NC#N)Nc1ccncc1)c1ccccc1` (stereo not given), for which, in the series with Rattus norvegicus [2], the TI rating was found to be 2.

Take `CC(C)C/N=C(\NC#N)Nc1cccnc1`: the TI rating in the series on Rattus norvegicus [2] turned out to be 2.

Consider `N#CN/C(=N\C12C[C@H]3C[C@@H](C1)C[C@@H](C2)C3)Nc1ccncc1`, for which, in the series with Rattus norvegicus [1], the TI rating stood at 3.

`CCC(C)(C)/N=C(\NC#N)Nc1ccncc1` displayed a TI rating in the series on Rattus norvegicus [1] of 3.

The compound `CCOCC/N=C(\NC#N)Nc1cccnc1` gave a TI rating with Rattus norvegicus [3] of 1.

`N#CN/C(=N\C1CCCC1)Nc1cccnc1` had a TI rating in the series on Rattus norvegicus [2] of 2.

`CC(C)(C)/N=C(\NC#N)Nc1cncc(Br)c1` gave a TI rating in the series on Rattus norvegicus [1] of 3.

For the compound `Cc1cc(C)nc(N/C(=N/C(C)(C)C)NC#N)c1`, the TI rating with Rattus norvegicus [3] was found to be 1.

On to `N#CN/C(=N\Cc1ccco1)Nc1cccnc1`, for which, in the series with Rattus norvegicus [2], the TI rating was 2.

`CC(C)CC(C)/N=C(\NC#N)Nc1ccncc1` (stereo not given) yielded a TI rating in the series on Rattus norvegicus [3] of 1.

`N#CN/C(=N\Cc1ccccc1)Nc1cccnc1` displayed a TI rating in the series on Rattus norvegicus [2] of 2.

In the case of `N#CNC(=N)Nc1cccnc1`, in the series on Rattus norvegicus [3], the TI rating was determined as 1.

In the case of `COc1ccc(/N=C(\NC#N)NC(C)(C)C)c(OC)n1`, in the series with Rattus norvegicus [3], the TI rating is 1.

The compound `CCC(C)(C)/N=C(\NC#N)Nc1c(C)cc(C)nc1C` came in with a TI rating in the series with Rattus norvegicus [3] of 1.

`CC(C)(C)/N=C(/NC#N)Nc1cccnc1` gave a TI rating in the series on Rattus norvegicus [1] of 3.

On to `CC(/N=C(/NC#N)Nc1cccnc1)C(C)(C)C` (stereo not given), for which the TI rating in the series on Rattus norvegicus [1] is 3.

In the case of `CC(C)(C)C/N=C(/NC#N)Nc1cccnc1`, the TI rating with Rattus norvegicus [1] stood at 3.

In turn, `N#CN/C(=N\C1CCCCC1)Nc1cccnc1` registered a TI rating with Rattus norvegicus [2] of 2.

In turn, `CCN(CC)CC/N=C(\NC#N)Nc1cccnc1` yielded a TI rating with Rattus norvegicus [3] of 1.

For the compound `N#CN/C(=N\CCc1ccccc1)Nc1cccnc1`, the TI rating in the series on Rattus norvegicus [3] worked out at 1.

With `CCCC/N=C(\NC#N)Nc1cccnc1`, the TI rating with Rattus norvegicus [2] was 2.

`N#CN/C(=N\CC1CCCO1)Nc1cccnc1` (stereo not given) came in with a TI rating in the series with Rattus norvegicus [3] of 1.

In the series with Rattus norvegicus [3], `N#CN/C(=N\C1CCCCC1)Nc1ccccn1` returned a TI rating of 1.

In the series with Rattus norvegicus [3], `N#CN/C(=N\c1ccccc1)Nc1ccncc1` yielded a TI rating of 1.

The compound `CC(C)C(C)(C)/N=C(\NC#N)Nc1ccncc1` returned a TI rating with Rattus norvegicus [2] of 2.

With `CCCCC/N=C(\NC#N)Nc1cccnc1`, the TI rating in the series on Rattus norvegicus [2] turned out to be 2.

In the series on Rattus norvegicus [2], `CC(C)(C)C/N=C(\NC#N)Nc1ccncc1` displayed a TI rating of 2.

The compound `CC(C)(C)CC(C)(C)/N=C(\NC#N)Nc1cccnc1` returned a TI rating in the series with Rattus norvegicus [3] of 1.

`CCCCC(CC)C/N=C(\NC#N)Nc1cccnc1` (stereo not given) registered a TI rating with Rattus norvegicus [3] of 1.

As to `N#CN/C(=N\C1CCCCC1)Nc1ccncc1`, the TI rating in the series with Rattus norvegicus [3] was determined as 1.

Regarding `N#CN/C(=N\C(C1CC1)C1CC1)Nc1ccncc1`, in the series on Rattus norvegicus [2], the TI rating was 2.

In the series on Rattus norvegicus [2], `CC(/N=C(\NC#N)Nc1ccncc1)C1CC1` (stereo not given) returned a TI rating of 2.

Compound `CC(C)C(/N=C(\NC#N)Nc1ccncc1)C(C)C` returned a TI rating in the series with Rattus norvegicus [3] of 1.

`CC(C)C(C)(C)/N=C(\NC#N)Nc1cccnc1`: the TI rating with Rattus norvegicus [1] came out at 3.

As to `CC(C)(NC(=NC#N)Nc1cccnc1)c1ccccc1`, in the series on Rattus norvegicus [3], the TI rating is 1.

`CC(C)(C)/N=C(\NC#N)Nc1ccc(Cl)cn1` yielded a TI rating in the series on Rattus norvegicus [3] of 1.

`CC(C)(C)/N=C(\NC#N)Nc1ccccn1`: the TI rating with Rattus norvegicus [3] was found to be 1.

In turn, `CCC(C)/N=C(\NC#N)Nc1cccnc1` (stereo not given) showed a TI rating in the series with Rattus norvegicus [2] of 2.

Turning to `N#CN/C(=N\C12C[C@H]3C[C@@H](C1)C[C@@H](C2)C3)Nc1cccnc1`, in the series with Rattus norvegicus [3], the TI rating is 1.

As for `N#CN/C(=N\c1ccccc1)Nc1cccnc1`, the TI rating in the series with Rattus norvegicus [2] was determined as 2.

In turn, `N#CN/C(=N\c1cccnc1)N1CCCCC1` showed a TI rating in the series with Rattus norvegicus [2] of 2.

As for `CCC(CC)(CC)/N=C(\NC#N)Nc1cccnc1`, the TI rating in the series on Rattus norvegicus [1] is reported as 3.

`N#CN/C(=N\Cc1ccccc1)Nc1ccncc1`: the TI rating in the series on Rattus norvegicus [2] came to 2.

Take `CC(C)(C)CC(C)(C)/N=C(\NC#N)Nc1ccncc1`: the TI rating in the series on Rattus norvegicus [3] is 1.

For the compound `CCC(C)(CC)/N=C(\NC#N)Nc1cccnc1`, the TI rating in the series on Rattus norvegicus [1] amounted to 3.

The compound `CCCCCCC/N=C(\NC#N)Nc1cccnc1` had a TI rating with Rattus norvegicus [3] of 1.

For the compound `CC(C)/N=C(\NC#N)Nc1cccnc1`, the TI rating in the series with Rattus norvegicus [1] was found to be 3.

In the series with Rattus norvegicus [2], `C=C(C)C/N=C(\NC#N)Nc1cccnc1` returned a TI rating of 2.

`CC(C)(C)/N=C(\NC#N)Nc1ccncc1` displayed a TI rating with Rattus norvegicus [1] of 3.

In the series on Rattus norvegicus [3], `N#CN/C(=N\C1CCCCCCC1)Nc1ccncc1` showed a TI rating of 1.

Compound `CCCC(C)(C)/N=C(\NC#N)Nc1cccnc1` returned a TI rating in the series with Rattus norvegicus [1] of 3.

In turn, `CCC(CC)/N=C(\NC#N)Nc1cccnc1` registered a TI rating in the series with Rattus norvegicus [3] of 1.

As for `CCC(C)C(C)/N=C(\NC#N)Nc1ccncc1` (stereo not given), the TI rating in the series on Rattus norvegicus [3] was determined as 1.

On to `N#CN/C(=N\C1CC1)Nc1cccnc1`, for which the TI rating with Rattus norvegicus [2] was determined as 2.

For `N#CN/C(=N\CCc1ccccc1)Nc1ccncc1`, the TI rating with Rattus norvegicus [2] is 2.

As to `CC(C)CC/N=C(\NC#N)Nc1cccnc1`, the TI rating in the series on Rattus norvegicus [2] was 2.

As for `CC(C)(C)C(C)(C)/N=C(\NC#N)Nc1cccnc1`, the TI rating in the series with Rattus norvegicus [3] came to 1.

`CCC/N=C(\NC#N)Nc1cccnc1`: the TI rating in the series on Rattus norvegicus [2] came to 2.

Regarding `C/N=C(\NC#N)Nc1cccnc1`, the TI rating in the series on Rattus norvegicus [3] was 1.

`CCC(C)(CC)/N=C(\NC#N)Nc1ccncc1` returned a TI rating in the series with Rattus norvegicus [1] of 3.

`Cc1cccc(C)c1/N=C(\NC#N)Nc1cccnc1`: in the series on Rattus norvegicus [3], the TI rating is listed as 1.

Compound `CCC(CC)(CC)/N=C(\NC#N)Nc1ccncc1` displayed a TI rating in the series on Rattus norvegicus [1] of 3.

Turning to `CC(C)(C)/N=C(\NC#N)Nc1cccnc1Cl`, the TI rating in the series on Rattus norvegicus [1] was found to be 3.

For `COc1ccc(N/C(=N/C(C)(C)C)NC#N)cn1`, the TI rating in the series on Rattus norvegicus [3] was found to be 1.

Compound `Cc1cc(C)c(/N=C(\NC#N)NC(C)(C)C)c(C)n1` showed a TI rating in the series on Rattus norvegicus [3] of 1.
